According to article PMC3948622, “Docking, Synthesis and Antiproliferative Activity of N-Acylhydrazone Derivatives Designed as Combretastatin A4 Analogues” (PLoS ONE, 2014):
Values after ≈ are worked out from the molar mass of the structure shown. Read-outs that look alike come from different tables or passages of the source.

Experiments:
HL-60 (human leukemia) = assay: In vitro antiproliferative MTT assay, HL-60; type: cell-based; conditions: for IC50: Homo sapiens, HL-60; for SI Lymphocyte/ HL-60: IC50 for human lymphocytes/IC50 for cancer cell line
Description: (§1) The antiproliferative activity of compounds 5a–r was determined based on an MTT assay and using CA-4 as standard against the tumor cell lines: HL-60 (human leukemia), SF-295 (human glioblastoma), MDA-MB435 (melanoma), PC3M (prostate cancer), OVCAR-8 (ovaries adenocarcinoma), NCI-H258M (pulmonary bronchio-alveolar carcinoma) and HCT-8 (adenocarcinoma ileocecal) (Table 2). To determine the selectivity index of compounds 5a–r, their antiproliferative profile was also evaluated toward human lymphocytes (Table 2).
(§2) Compounds (0.009–5 µg/mL) were tested for cytotoxic activity against selected cancer cell lines: SF-295 (glioblastoma), HCT-8 (colon), MDAMB-435 (melanoma), HL60 (leukemia), PC3M (prostate cancer), OVCAR-8 (ovaries adenocarcinoma) and NCI-H258M (pulmonary bronchio-alveolar carcinoma). All cell lines were kindly obtained from the National Cancer Institute (Bethesda, MD, USA).Tumor cell proliferation was quantified through the ability of living cells to reduce the yellow dye 3-(4,5-dimethyl-2-thiazolyl)-2,5-diphenyl-2H-tetrazolium bromide (MTT, Sigma Aldrich)) to a purple formazan product and absorbance was measured at 595 nm (DTX-880, Beckman Coulter).

[1] = tested on: SF-295 (human glioblastoma); assay: In vitro antiproliferative MTT assay, SF-295; type: cell-based; conditions: for IC50: Homo sapiens, SF-295, read-out: IC50 SF295; for SI Lymphocyte/ SF-295: IC50 for human lymphocytes/IC50 for cancer cell line
Description: as §1, §2

[2] = tested on: HCT-8 (adenocarcinoma ileocecal); assay: In vitro antiproliferative MTT assay, HCT-8; type: cell-based; conditions: for IC50: Homo sapiens, HCT-8; for SI Lymphocyte/ HCT-8: IC50 for human lymphocytes/IC50 for cancer cell line
Description: as §1, §2

tumor cell lines = assay: In vitro antiproliferative MTT assay, tumor cell lines (summary over the panel); type: cell-based; conditions: HL-60, SF296, HCT-8 and MDA-MB435 tumor cells
Description: as §1, §2

MDA-MB435 (melanoma) [3] = assay: In vitro antiproliferative MTT assay, MDA-MB435; type: cell-based; conditions: Homo sapiens, MDA-MB-435
[4] = Aqueous solubility assay by ultraviolet spectroscopy; type: physicochemical; conditions: water (saturated aqueous solution), thermodynamic from solid, 2 hours at 37°C, read-out: Aq. Solubility
Description: Ultraviolet spectroscopy was performed using Femto spectrophotometer. The wavelength used in solubility assay was determined by the -λ max characteristic of each compound. Spectra were analyzed in Femtoscan software. Mass spectrometry was obtained by positive ionization at Bruker AmaZon SL and data analyzed in Compass 1.3.SR2 software.
The solubility assay was performed considering the absorptivity of compounds in ultraviolet spectroscopy as described by Schneider and coworkers. The assay wavelength was determined by the λ max characteristic of each compound.
Saturated aqueous solutions were prepared (0.01 mg/mL) and were kept under stirring for 2 hours at 37°C. The supernatant was filtered in 0,45 µm filters and transferred to a quartz cuvette (10 mm) to spectra acquisition.
Solubility was determined by linear regression using as graph plots, solutions prepared by dilutions of the original solution in methanol. The data were obtained in triplicates and the mean values were used to the graph plots. The correlation coefficient (R^2) values were between 0.9972 and 0.9999.

MDA-MB435 (melanoma) [5] = assay: In vitro antiproliferative MTT assay, MDA-MB435; type: cell-based; conditions: IC50 for human lymphocytes/IC50 for cancer cell line
Description: as §1, §2

PC3M (prostate cancer) = assay: In vitro antiproliferative MTT assay, PC3M; type: cell-based; conditions: for IC50: Homo sapiens, PC-3M, Table 2, MTT; for SI Lymphocyte/ PC3M: IC50 for human lymphocytes/IC50 for cancer cell line
Description: as §1, §2

[6] = tested on: OVCAR-8 (ovaries adenocarcinoma); assay: In vitro antiproliferative MTT assay, OVCAR-8; type: cell-based; conditions: for IC50: Homo sapiens, OVCAR-8, Table 2, MTT; for SI Lymphocyte/ OVCAR-8: IC50 for human lymphocytes/IC50 for cancer cell line
Description: as §1, §2

[7] = tested on: NCI-H358M (pulmonary bronchio-alveolar carcinoma); assay: In vitro antiproliferative MTT assay, NCI-H358M; type: cell-based; conditions: for SI Lymphocyte/ NCI-H358M: IC50 for human lymphocytes/IC50 for cancer cell line; for IC50: NCI-H358M, Table 2, MTT
human lymphocytes = assay: In vitro antiproliferative assay, human lymphocytes; type: cell-based; conditions: Lymphocyte, Table 2
Description: as §1
To investigate the selective cytotoxic activity of the N-acylhydrazones derivatives (5a–r), their antiproliferative potency was also assessed toward human lymphocytes and the results were compared to the data from CA-4 ([…]). The selectivity index (SI), which was the IC50 for human lymphocytes/IC50 for cancer cell lines after treatment with CA-4 and N-acylhydrazones (5a–r), was calculated, as depicted in Table 3. […] The best comparative selectivity indices (CA-4 vs 5b) were obtained from the SF-295 (SI = 13), MDA-MB435 (SI = 42) and NCI-H258M (SI = 9.5) tumor cell lines, and the worst results were found for OVCAR-8 (SI = 0.5).

Row | Compound | IC50 (HL-60 (human leukemia); Table 4) [µM] | IC50 ([1]; Table 4) [µM] | IC50 ([2]; Table 4) [µM] | cytotoxic activity (in words) (tumor cell lines) | melting point [°C] | IC50 (MDA-MB435 (melanoma) [3]; Table 4) [µM] | solubility at 2 h [4] [µg/mL] | IC50 (HL-60 (human leukemia); Table 2, MTT) [µM] | SI Lymphocyte/ HL-60 (HL-60 (human leukemia)) | IC50 ([1]; Table 2, MTT) [µM] | SI Lymphocyte/ SF-295 [1] | IC50 ([2]; Table 2, MTT) [µM] | SI Lymphocyte/ HCT-8 [2] | SI Lymphocyte/ MDA-MB345 (MDA-MB435 (melanoma) [5]) | IC50 (PC3M (prostate cancer)) [µM] | SI Lymphocyte/ PC3M (PC3M (prostate cancer)) | IC50 [6] [µM] | SI Lymphocyte/ OVCAR-8 [6] | SI Lymphocyte/ NCI-H358M [7] | IC50 [7] [µM] | also measured
1 | COc1cc(/C=N/NC(=O)c2ccccc2)cc(OC)c1OC [Compound 10, (E)-N′-(3,4,5-trimethoxybenzylidene)-benzohydrazide] | > 25 | > 25 | > 25 | inactive | 211 to 212 | > 25 |  |  |  |  |  |  |  |  |  |  |  |  |  |  | 
2 | O=C(N/N=C/c1ccccc1)c1ccccc1 [Compound 9, (E)-N′-benzylidenebenzohydrazide] | > 25 | > 25 | > 25 | loss of cytotoxic activity | 211 to 212 | > 25 |  |  |  |  |  |  |  |  |  |  |  |  |  |  | 
3 | COc1ccc(/C=N/NC(=O)c2cc(OC)c(OC)c(OC)c2)cc1OC [Compound 5g, (E)-N′-(3,4-dimethoxybenzylidene)-3,4,5-trimetoxybenzohydrazide] |  |  |  |  | 190 to 191 |  | 1.94 (≈ 5.18 µM) | 4.43 | 4.10±0.10 | 18.1 | 0.99±0.005 | 7.05 | 2.50±0.005 | 8.41±0.09 | 12.6 | 1.44±0.04 | 7.11 | 2.55±0.05 | 1.80±0.005 | 10.2 | IC50 (human lymphocytes): 18 µM; IC50 (MDA-MB435 (melanoma) [3]; Table 2, MTT): 2.11 µM
4 | COc1cc(C(=O)N/N=C/c2ccc(F)cc2)cc(OC)c1OC [Compound 5p, (E)-N′-(4-fluorobenzylidene) - 3,4,5-trimetoxybenzohyidrazide] |  |  |  |  | 181 to 182 |  | 20.9 (≈ 62.9 µM) | 1.27 | 3.11±0.11 | 2.69 | 1.46±0.06 | 2.02 | 1.85±0.04 | 2.34±0.06 | 4.48 | 0.89±0.01 | 0.96 | 4.38±0.38 | 1.76±0.04 | 2.16 | IC50 (human lymphocytes): 3.82 µM; IC50 (MDA-MB435 (melanoma) [3]; Table 2, MTT): 1.58 µM
